Data reported in patent US20230087118A1, “IMIDAZO[1,2-a][sequence] DERIVATIVES AND THEIR USE IN THE TREATMENT OF DISEASE” (priority 2019, published 2023).
Where a name gives a salt, the structure may show the parent alone. Read-outs that look alike come from different tables or passages of the source.

Target: T1, IRAK4 (Homo sapiens, UniProt Q9NWZ3)
T1 sequence (Q9NWZ3 1-460): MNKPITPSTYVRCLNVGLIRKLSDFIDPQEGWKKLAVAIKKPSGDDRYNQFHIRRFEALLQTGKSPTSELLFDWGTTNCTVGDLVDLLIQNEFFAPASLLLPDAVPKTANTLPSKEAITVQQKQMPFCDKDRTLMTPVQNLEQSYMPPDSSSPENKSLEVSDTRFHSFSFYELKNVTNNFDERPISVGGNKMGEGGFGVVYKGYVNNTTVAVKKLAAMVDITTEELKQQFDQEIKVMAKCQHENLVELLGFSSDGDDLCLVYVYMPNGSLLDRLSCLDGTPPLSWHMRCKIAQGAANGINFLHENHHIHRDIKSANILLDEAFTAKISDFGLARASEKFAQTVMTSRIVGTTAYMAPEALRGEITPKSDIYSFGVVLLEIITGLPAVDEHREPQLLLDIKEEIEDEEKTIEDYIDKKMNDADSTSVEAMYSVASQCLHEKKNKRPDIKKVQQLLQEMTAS
Assay: biochemical

[1] = IRAK4 Biochemical Assay (1 mM ATP, 2 h) IC50 (μM), 1 mM ATP, 2 h, 100 pM IRAK4

| IC50 | IC50 [1] | SMILES |
| --- | --- | --- |
| 0.0002 µM | – | CC(C)Oc1nc2nc(C34COC(C)(C3)C4)cn2cc1C(=O)Nc1cccc2ncnn12 [Example 410, N-([1,2,4]triazolo[1,5-a]pyridin-5-yl)-7-isopropoxy-2-(1-methyl-2-oxabicyclo[2.1.1]hexan-4-yl)imidazo[1,2-a]pyrimidine-6-carboxamide] |
| – | 0.0038 µM | CCOc1nc(C(=O)Nc2cccnc2OC)cn2cc(C3CC3)nc12 [Example 279, 2-Cyclopropyl-8-ethoxy-N-(2-methoxypyridin-3-yl)imidazo[1,2-a]pyrazine-6-carboxamide trifluoroacetate] |
| 0.0023 µM | – | CC(C)Oc1nc(C(=O)Nc2ccn(C)n2)cn2cc(C34CCC(C)(C3)OC4)nc12 (stereo not drawn) [Example 240] |
| – | 0.002 µM | COc1ccc2ncc(NC(=O)c3cn4cc(C56COC(C)(C5)C6)nc4nc3OC(C)C)n2n1 [Example 308, 7-Isopropoxy-N-(6-methoxyimidazo[1,2-b]pyridazin-3-yl)-2-(1-methyl-2-oxabicyclo[2.1.1]hexan-4-yl)imidazo[1,2-a]pyrimidine-6-carboxamide trifluoroacetate] |
| 0.0002 µM | – | CC(C)Oc1nc2nc(C34COC(C)(C3)C4)cn2cc1C(=O)Nc1cccn(C(F)F)c1=O [Example 388, N-(1-(difluoromethyl)-2-oxo-1,2-dihydropyridin-3-yl)-7-isopropoxy-2-(1-methyl-2-oxabicyclo[2.1.1]hexan-4-yl)imidazo[1,2-a]pyrimidine-6-carboxamide] |
| 0.0073 µM | – | CC(C)Oc1cc2nc(C(F)F)cn2cc1C(=O)Nc1cccc(C(F)F)n1 [Example 99] |
| – | 0.0003 µM | CC(C)Oc1cc2nc(C34COC(C)(C3)C4)cn2cc1C(=O)Nc1cnc2cccnn12 [Example 321, N-(imidazo[1,2-b]pyridazin-3-yl)-7-isopropoxy-2-(1-methyl-2-oxabicyclo[2.1.1]hexan-4-yl)imidazo[1,2-a]pyridine-6-carboxamide 2,2,2-trifluoroacetate] |
| 0.0007 µM | – | CC[C@H](C)Oc1cc2nc(C34COC(C)(C3)C4)cn2cc1C(=O)Nc1cnn2cc(C)cnc12 [Example 559] |
| 0.326 µM | – | COc1cc2nc(C3CCOCC3)cn2cc1C(=O)Nc1ccc(O)nc1OC [Example 188] |
| – | 0.0011 µM | CCOc1nc(C(=O)Nc2cccc3ccnn23)cn2cc(C34CCC(C)(C3)OC4)nc12 (stereo not drawn) [Example 278, 8-Ethoxy-2-(1-methyl-2-oxabicyclo[2.2.1]heptan-4-yl)-N-(pyrazolo[1,5-a]pyridin-7-yl)imidazo[1,2-a]pyrazine-6-carboxamide trifluoroacetate] |
| 0.034 µM | – | CCc1cccc(NC(=O)c2cn3cc(C4CCOCC4)nc3c(OC)n2)n1 [Example 86] |
| 0.001 µM | – | CC(C)Oc1cc2nc(C34COC(C)(C3)C4)cn2cc1C(=O)Nc1cccc2cn(C)nc12 [Example 318, 7-Isopropoxy-N-(2-methyl-2H-indazol-7-yl)-2-(1-methyl-2-oxabicyclo[2.1.1]hexan-4-yl)imidazo[1,2-a]pyridine-6-carboxamide] |
| 0.0011 µM | – | CC(C)Oc1nc2nc([C@]34CC[C@](C)(C3)OC4)cn2cc1C(=O)Nc1cccn(C)c1=O (single isomer, unassigned) [Example 653] |
| 0.0135 µM | – | CCOc1cc(C(=O)Nc2cccc(C(F)F)n2)cn2cc([C@H]3CCCOC3)nc12 (single isomer, unassigned) [Example 55] |
| – | 0.0018 µM | CC(C)Oc1cc2nc(C34CCC(C)(C3)OC4)cn2cc1C(=O)Nc1ccn(C(F)F)n1 (stereo not drawn) [Example 504, N-(1-(difluoromethyl)-1H-pyrazol-3-yl)-7-isopropoxy-2-(1-methyl-2-oxabicyclo[2.2.1]heptan-4-yl)imidazo[1,2-a]pyridine-6-carboxamide] |
| 0.0008 µM | – | Cn1ccc(NC(=O)c2cn3cc([C@@]45CC[C@@](C)(C4)OC5)nc3cc2OC2CCC2)n1 (single isomer, unassigned) [Example 610] |
| – | 0.0003 µM | COc1cccc(NC(=O)c2cn3cc(C45COC(C)(C4)C5)nc3cc2OC(C)C)n1 [Example 97, 7-Isopropoxy-N-(6-methoxypyridin-2-yl)-2-(1-methyl-2-oxabicyclo[2.1.1]hexan-4-yl)imidazo[1,2-a]pyridine-6-carboxamide] |
| 0.0001 µM | – | CC(C)Oc1cc2nc([C@@]34CC[C@@H](C3)OC4)cn2cc1C(=O)Nc1cccc(C(F)F)n1 (single isomer, unassigned) [Example 590] |
| 0.0596 µM | – | CC(C)Oc1cc2nc(C34COC(C)(C3)C4)cn2cc1C(=O)Nc1ccnc(C(F)F)c1 [Example 258, N-(2-(difluoromethyl)pyridin-4-yl)-7-isopropoxy-2-(1-methyl-2-oxabicyclo[2.1.1]hexan-4-yl)imidazo[1,2-a]pyridine-6-carboxamide] |
| 0.0001 µM | – | CC12CC(c3cn4cc(C(=O)Nc5cnc6cccnn56)c(OC5CCCC5)nc4n3)(CO1)C2 [Example 650, 7-(cyclopentyloxy)-N-(imidazo[1,2-b]pyridazin-3-yl)-2-(1-methyl-2-oxabicyclo[2.1.1]hexan-4-yl)imidazo[1,2-a]pyrimidine-6-carboxamide] |
| 0.0002 µM | – | COc1ncccc1NC(=O)c1cn2cc(C34CCC(C)(C3)OC4)nc2nc1OC(C)C (stereo not drawn) [Example 248] |
| 0.0106 µM | – | COc1cc2nc(C3CCOCC3)cn2cc1C(=O)Nc1cccc(C)n1 [Example 116] |
| 0.0008 µM | – | COc1ncccc1NC(=O)c1cn2cc(C34COC(CF)(C3)C4)nc2c(OC(C)C)n1 [Example 339, 2-(1-(Fluoromethyl)-2-oxabicyclo[2.1.1]hexan-4-yl)-8-isopropoxy-N-(2-methoxypyridin-3-yl)imidazo[1,2-a]pyrazine-6-carboxamide] |
| 0.0001 µM | – | CC(C)Oc1nc2nc(C34COC(C)(C3)C4)cn2cc1C(=O)Nc1cccc(-c2cnn(C)c2)n1 [Example 413, 7-Isopropoxy-N-(6-(1-methyl-1H-pyrazol-4-yl)pyridin-2-yl)-2-(1-methyl-2-oxabicyclo[2.1.1]hexan-4-yl)imidazo[1,2-a]pyrimidine-6-carboxamide] |
| 0.0006 µM | – | CCCOc1nc(C(=O)Nc2cccc(C(F)F)n2)cn2cc(C3CCOCC3)nc12 [Example 335, N-(6-(difluoromethyl)pyridin-2-yl)-8-propoxy-2-(tetrahydro-2H-pyran-4-yl)imidazo[1,2-a]pyrazine-6-carboxamide] |
| 0.0669 µM | – | COc1cc2nc(C3CCOCC3)cn2cc1C(=O)Nc1csnc1C [Example 108] |
| 0.0015 µM | – | CC(C)Oc1nc(C(=O)Nc2cccc(C(F)F)n2)cn2cc([C@@]34CC[C@@](C)(C3)OC4)nc12 (single isomer, unassigned) [Example 588] |
| 0.0023 µM | – | Cc1cnc2c(NC(=O)c3cn4cc(C56COC(CF)(C5)C6)nc4c(F)c3OC(C)C)cnn2c1 [Example 270, 8-Fluoro-2-(1-(fluoromethyl)-2-oxabicyclo[2.1.1]hexan-4-yl)-7-isopropoxy-N-(6-methylpyrazolo[1,5-a]pyrimidin-3-yl)imidazo[1,2-a]pyridine-6-carboxamide] |
| 0.0002 µM | – | CC12CC(c3cn4cc(C(=O)Nc5cccn(C(F)F)c5=O)c(OC5CCCC5)cc4n3)(CO1)C2 [Example 457, 7-(Cyclopentyloxy)-N-(1-(difluoromethyl)-2-oxo-1,2-dihydropyridin-3-yl)-2-(1-methyl-2-oxabicyclo[2.1.1]hexan-4-yl)imidazo[1,2-a]pyridine-6-carboxamide] |
| 0.0006 µM | – | CC(C)Oc1nc2nc(C34COC(C)(C3)C4)cn2cc1C(=O)Nc1cnc2cccnn12 [Example 373, N-(imidazo[1,2-b]pyridazin-3-yl)-7-isopropoxy-2-(1-methyl-2-oxabicyclo[2.1.1]hexan-4-yl)imidazo[1,2-a]pyrimidine-6-carboxamide] |

| SMILES | IC50 | IC50 [1] |
| --- | --- | --- |
| CC(C)Oc1cc2nc(C34CCC(C)(CC3)OC4)cn2cc1C(=O)Nc1ccn(C)n1 [Example 571, 7-Isopropoxy-N-(1-methyl-1H-pyrazol-3-yl)-2-(1-methyl-2-oxabicyclo[2.2.2]octan-4-yl)imidazo[1,2-a]pyridine-6-carboxamide] | – | 0.0017 µM |
| CC12CC(c3cn4cc(C(=O)Nc5cccn(C(F)F)c5=O)c(OC5CC(F)(F)C5)cc4n3)(CO1)C2 [Example 455, 7-(3,3-Difluorocyclobutoxy)-N-(1-(difluoromethyl)-2-oxo-1,2-dihydropyridin-3-yl)-2-(1-methyl-2-oxabicyclo[2.1.1]hexan-4-yl)imidazo[1,2-a]pyridine-6-carboxamide] | 0.0012 µM | – |
| CC12CC(c3cn4cc(C(=O)Nc5cnn6cccnc56)nc(OC5CCC5)c4n3)(CO1)C2 [Example 349, 8-Cyclobutoxy-2-(1-methyl-2-oxabicyclo[2.1.1]hexan-4-yl)-N-(pyrazolo[1,5-a]pyrimidin-3-yl)imidazo[1,2-a]pyrazine-6-carboxamide] | 0.0053 µM | – |
| Cn1cc(-c2cccc(NC(=O)c3cn4cc(C56CCC(C)(C5)OC6)nc4cc3OC3CCC3)n2)cn1 (stereo not drawn) [Example 542, 7-Cyclobutoxy-N-(6-(1-methyl-1H-pyrazol-4-yl)pyridin-2-yl)-2-(1-methyl-2-oxabicyclo[2.2.1]heptan-4-yl)imidazo[1,2-a]pyridine-6-carboxamide] | 0.0001 µM | – |
| Cc1cnc2c(NC(=O)c3cn4cc(C56COC(C)(C5)C6)nc4nc3OC3CCC3)cnn2c1 [Example 575, 7-Cyclobutoxy-2-(1-methyl-2-oxabicyclo[2.1.1]hexan-4-yl)-N-(6-methylpyrazolo[1,5-a]pyrimidin-3-yl)imidazo[1,2-a]pyrimidine-6-carboxamide] | 0.0007 µM | – |
| CCn1ccc(NC(=O)c2cn3cc(C45CCC(C)(C4)OC5)nc3cc2OC2CCC2)n1 (stereo not drawn) [Example 533, 7-Cyclobutoxy-N-(1-ethyl-1H-pyrazol-3-yl)-2-(1-methyl-2-oxabicyclo[2.2.1]heptan-4-yl)imidazo[1,2-a]pyridine-6-carboxamide] | 0.0037 µM | – |
